For data set [1], the system named is Drosophila melanogaster. Description: Genotoxicity in Drosophila melanogaster larvae at 10^-3 M. The settings on record: in vivo, 1000 µM. It counts as organism-based.
Data set [2] relates to Drosophila melanogaster. Description: Insecticidal activity against Drosophila melanogaster larvae assessed as death at 24 +/- 1 degC, 60%RH. To be noted: for LC50: Drosophila melanogaster. Type of data set: functional.
The subject of data set [3] is Drosophila melanogaster. Description: Insecticidal activity against Drosophila melanogaster adults assessed as death treated upto 72 hr at 24 +/- 1 degC, 60%RH. It counts as functional. To be noted: for LC50: Drosophila melanogaster, 72 h.
In data set [4] the test system is Bactrocera oleae. The data set is described as follows: Insecticidal activity against Bactrocera oleae adults assessed as death treated upto 72 hr at 24 +/- 1 degC, 60%RH. It counts as functional. The settings on record: for LC50: Bactrocera oleae, 72 h.
Data set [5] deals with Bactrocera oleae. The data set is described as follows: Insecticidal activity against Bactrocera oleae adults assessed as death treated upto 24 hr at 24 +/- 1 degC, 60%RH. Type of data set: functional. The settings on record: for LC50: Bactrocera oleae, 24 h.
The subject of data set [6] is Bactrocera oleae. Description: Insecticidal activity against Bactrocera oleae adults assessed as death treated upto 192 hr at 24 +/- 1 degC, 60%RH. It counts as functional. To be noted: for LC50: Bactrocera oleae, 192 h.
Data set [7] has as its system Drosophila melanogaster. Description: Insecticidal activity against Drosophila melanogaster adults assessed as death treated upto 24 hr at 24 +/- 1 degC, 60%RH. Type of data set: functional. The settings on record: for LC50: Drosophila melanogaster, 24 h.
For data set [8], the system named is Bactrocera oleae. The data set is described as follows: Insecticidal activity against Bactrocera oleae adults assessed as death treated upto 120 hr at 24 +/- 1 degC, 60%RH. The settings on record: for LC50: Bactrocera oleae, 120 h. It counts as functional.
Data set [9] has as its system Drosophila melanogaster. The data set is described as follows: Genotoxicity in Drosophila melanogaster larvae at 7.50 to 10 mg/l. It counts as organism-based. To be noted: in vivo.
In data set [10] the test system is Drosophila melanogaster. Description: Insecticidal activity against Drosophila melanogaster adults assessed as death treated upto 192 hr at 24 +/- 1 degC, 60%RH. To be noted: for LC50: Drosophila melanogaster, 192 h. Type of data set: functional.
Data set [11] relates to Drosophila melanogaster. The data set is described as follows: Insecticidal activity against Drosophila melanogaster adults assessed as death treated upto 120 hr at 24 +/- 1 degC, 60%RH. Type of data set: functional. The settings on record: for LC50: Drosophila melanogaster, 120 h.
The subject of data set [12] is Drosophila melanogaster. Description: Genotoxicity in Drosophila melanogaster larvae at 0.10 to 0.30 mg/l. Type of data set: organism-based. To be noted: in vivo.

Drawing on ChEMBL document CHEMBL3045737, “Evaluation of toxicity and genotoxic effects of spinosad and deltamethrin in Drosophila melanogaster and Bactrocera oleae” (Pest Manag Sci, 2011), this text covers Activity, LC90 and LC50 for 3 compounds.

Converted amounts (≈) assume the structure as drawn.

Turning to `CCOS(C)(=O)=O` [METHANESULFONIC ACID ETHYL ESTER], the Activity result in the data set with Drosophila melanogaster [1] was “Toxic”.

The LC50 is the concentration lethal to half of the exposed cells or organisms. Turning to `CC1(C)[C@H](C(=O)O[C@H](C#N)c2cccc(Oc3ccccc3)c2)[C@@H]1C=C(Br)Br` [DELTAMETHRIN], the LC90 was 17.41 µg/mL (≈ 34.5 µM) in the data set with Drosophila melanogaster [2]; 14.591 µg/mL (≈ 28.9 µM) in the data set on Drosophila melanogaster [3]; 1.002 µg/mL (≈ 1.98 µM) in the data set with Bactrocera oleae [4]; 6.033 µg/mL (≈ 11.9 µM) with Bactrocera oleae [5]; 0.398 µg/mL (≈ 0.788 µM) in the data set with Bactrocera oleae [6]; 31.682 µg/mL (≈ 62.7 µM) in the data set on Drosophila melanogaster [7]. For the same compound, the results for the LC90 in the data set on Bactrocera oleae [8], in the data set with Drosophila melanogaster [10] and with Drosophila melanogaster [11] were 0.161 µg/mL (≈ 0.319 µM), 10.352 µg/mL (≈ 20.5 µM) and 13.599 µg/mL (≈ 26.9 µM), respectively. For the same compound, the LC50 in the data set on Drosophila melanogaster [2] came to 4.96 µg/mL (≈ 9.81 µM); in the data set with Drosophila melanogaster [3], 8.03 µg/mL (≈ 15.9 µM); in the data set on Bactrocera oleae [4], 0.344 µg/mL (≈ 0.681 µM); in the data set with Bactrocera oleae [5] it was 2.85 µg/mL (≈ 5.64 µM); in the data set with Bactrocera oleae [6], 0.414 µg/mL (≈ 0.819 µM); in the data set on Drosophila melanogaster [7] it was 17.1 µg/mL (≈ 33.8 µM). Also, the LC50 in the data set with Bactrocera oleae [8] is 0.176 µg/mL (≈ 0.348 µM); in the data set with Drosophila melanogaster [10], 4.82 µg/mL (≈ 9.53 µM); in the data set on Drosophila melanogaster [11], 7.24 µg/mL (≈ 14.3 µM). Also, the Activity result in the data set on Drosophila melanogaster [9] is “Non-toxic”.

For `CC[C@H]1CCC[C@H](O[C@H]2CC[C@H](N(C)C)[C@@H](C)O2)[C@@H](C)C(=O)C2=C[C@@H]3[C@@H](C=C(C)[C@@H]4C[C@@H](O[C@@H]5O[C@@H](C)[C@H](OC)[C@@H](OC)[C@H]5OC)C[C@@H]34)[C@@H]2CC(=O)O1.CC[C@H]1CCC[C@H](O[C@H]2CC[C@H](N(C)C)[C@@H](C)O2)[C@@H](C)C(=O)C2=C[C@@H]3[C@@H](C=C[C@@H]4C[C@@H](O[C@@H]5O[C@@H](C)[C@H](OC)[C@@H](OC)[C@H]5OC)C[C@@H]34)[C@@H]2CC(=O)O1`, the Activity result in the data set on Drosophila melanogaster [12] is “Non-toxic”. For the same compound, the LC90 in the data set on Drosophila melanogaster [2] was found to be 0.308 µg/mL; in the data set on Drosophila melanogaster [3] it was 1.998 µg/mL; in the data set on Bactrocera oleae [4], 0.598 µg/mL; in the data set with Bactrocera oleae [5], 7.277 µg/mL; in the data set on Bactrocera oleae [6] it was 0.345 µg/mL; in the data set on Drosophila melanogaster [7], 5.604 µg/mL. For the same compound, the figures for the LC90 in the data set on Bactrocera oleae [8], in the data set on Drosophila melanogaster [10] and in the data set on Drosophila melanogaster [11] were 0.422 µg/mL, 0.367 µg/mL and 1.074 µg/mL, respectively. Besides, the LC50 in the data set with Drosophila melanogaster [2] stood at 0.13 µg/mL; in the data set with Drosophila melanogaster [3] it was 1.26 µg/mL; with Bactrocera oleae [4], 0.341 µg/mL; with Bactrocera oleae [5] it was 4.06 µg/mL; in the data set with Bactrocera oleae [6] it was 0.111 µg/mL; in the data set on Drosophila melanogaster [7] it was 3.8 µg/mL. For the same compound, the LC50 with Bactrocera oleae [8] amounted to 0.191 µg/mL; in the data set on Drosophila melanogaster [10], 0.262 µg/mL; with Drosophila melanogaster [11] it was 0.75 µg/mL.
